The text below walks through data of PubChem BioAssay (NCI).

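Protocol summary: plate cells (96-well), add compound at 5 concentrations, incubate 48 h, interpolate endpoints linearly. At the GI50, growth is halved. At the TGI there is no net growth.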

Common to all, as to experiment: inhibition of tumour cell growth, NCI panel, 48 h
Test [1] concerns ACHN renal.
Test [2] concerns HOP-62 NSCLC.
For test [3], the system named is KM12 colon.
Test [4] concerns NCI-H226 lung.
Test [5] has as its system NCI-H522 lung.
Test [6] relates to RXF 393 renal.
Test [7] has as its system SF-539 CNS.
Test [8] has as its system UO-31 renal.
For test [9], the system named is SN12C renal.

On to `CN1CCN(c2ccncc2S(=O)(=O)N2CCN(C)CC2)CC1`, for which the TGI in test [1], in test [2], in test [3], in [4], in test [5] and in [6] was > 100 µM throughout. Also, the TGI in test [7] and in test [8] was > 100 µM each time.
With `O=C(Nc1ccc(Cl)cc1)c1cc(NCc2cc(O)ccc2O)ccc1O`, the GI50 in test [1] was 3.37 µM; in test [2] it was 22 µM; in test [3], 3.33 µM; in [5], 0.488 µM; in test [6], 2.24 µM; in [7] it was 1.73 µM. In addition, the GI50 in [9] was 7.47 µM; in test [8], 1.45 µM. In addition, the TGI in test [1] is 15.1 µM; in [2], 51.7 µM; in [3] it was 14.6 µM; in test [5], 1.88 µM; in [6] it was 5.31 µM; in [7], 4.16 µM. The TGI in [9] is 22.6 µM; in test [8] it was 3.21 µM.
Turning to `COc1ccc2c(c1)C(=O)/C(=C/c1ccc(O)cc1)O2`, the GI50 in test [1] was 4 µM; in [2] it was 55.2 µM; in test [3], 8.78 µM; in [4] it was 25.7 µM; in test [5] it was 1.86 µM; in test [6] it was 11 µM. The results for the GI50 in test [7], in test [9] and in test [8] were 21.6 µM, 14.1 µM and 4.73 µM, respectively. Besides, the TGI in [1] was 10.9 µM; in [2], > 100 µM; in test [3], 22.8 µM; in [4], 79 µM; in test [5] it was 3.75 µM; in [6], 26 µM. Further, the TGI in test [7] came out at 56.8 µM; in test [9], 32 µM; in test [8], 9.39 µM.
As for `CCCCCCCC(=O)Nc1nc2[nH]c(CN3CCN(Cc4cccc(I)c4)CC3)c(CN3CCN(Cc4cccc(I)c4)CC3)c2c(=O)[nH]1`, the GI50 in [1] is 0.892 µM; in [2] it was 0.936 µM; in test [3] it was 0.906 µM; in test [4], 1.16 µM; in test [5], 0.901 µM; in test [6] it was 0.78 µM. In addition, the results for the GI50 in [7], in test [9] and in test [8] were 0.88 µM, 0.916 µM and 0.717 µM, respectively. Moreover, the TGI was determined as 1.61 µM in test [1]; 2.06 µM in [2]; 1.75 µM in [3]; 2.59 µM in test [4]; 1.95 µM in test [5]; 1.49 µM in [6]. Further, the results for the TGI in [7], in [9] and in [8] were 1.61 µM, 1.75 µM and 1.41 µM, respectively.
Regarding `Cc1cccc2c(=O)c3c(sc12)c(NCCCN)nc1ccccc13`, the GI50 in test [1] was 1.39 µM; in [2], 1.24 µM; in test [3] it was 1.65 µM; in test [5] it was 1.57 µM; in test [6] it was 1.48 µM; in test [7] it was 1.69 µM. Moreover, the figures for the GI50 in test [9] and in [8] were 1.47 µM and 1.06 µM, respectively. The TGI in test [1] was 2.71 µM; in test [2], 2.79 µM; in test [3], 3.21 µM; in test [5], 3.34 µM; in test [6], 2.87 µM; in test [7], 3.09 µM. Further, the TGI was determined as 2.93 µM in test [9] and 2.29 µM in [8].
For `CCOc1ccc(Nc2ccnc3cc(Cl)ccc23)cc1`, the GI50 in test [1] is 49.6 µM; in test [2], > 100 µM; in [3] it was 84.1 µM; in [4], 79.7 µM; in test [5], 26.4 µM; in [6] it was 72.3 µM. The figures for the GI50 in test [7], in test [9] and in [8] were 29.4 µM, > 100 µM and > 100 µM, respectively. Also, the TGI is > 100 µM in test [1]; > 100 µM in test [2]; > 100 µM in [3]; > 100 µM in test [4]; 86.6 µM in test [5]; > 100 µM in test [6]. Further, the TGI in test [7], in test [9] and in test [8] was > 100 µM throughout.
In the case of `O=c1oc2ccc(F)cc2c(=O)n1-c1ccc(I)cc1F`, the GI50 was 0.43 µM in test [1]; 0.916 µM in test [2]; 1.92 µM in [3]; 0.472 µM in test [4]; 0.322 µM in test [5]; 0.543 µM in test [6]. In addition, the GI50 in test [7] was 0.42 µM; in [9], 0.381 µM; in test [8], 0.241 µM. Moreover, the TGI was 7.39 µM in test [1]; 14.9 µM in test [2]; 5.38 µM in [3]; 4.5 µM in test [4]; 3.3 µM in test [6]; 5.17 µM in test [7]. Besides, the values for the TGI in test [9] and in test [8] were 5.45 µM and 1.46 µM, respectively.
As to `COc1cc(OCCCN2CCCC2)ccc1Nc1ncc(Cl)c(Nc2ccccc2P(C)(C)=O)n1`, the GI50 was 2.46 µM in [1]; 2.11 µM in [2]; 2.63 µM in test [3]; 1.59 µM in test [4]; 0.811 µM in test [5]; 0.81 µM in [6]. Further, the results for the GI50 in test [7], in test [9] and in [8] were 3.49 µM, 2.52 µM and 2.28 µM, respectively. Also, the TGI in [1] amounted to 16.7 µM; in [2] it was 12.5 µM; in test [3], 11 µM; in test [4], 6.45 µM; in test [5] it was 3.95 µM; in test [6] it was 3.23 µM. The TGI was determined as 12.8 µM in test [7], 25.5 µM in [9] and 6.31 µM in test [8].
